The target of data set [1] is T1, glucagon receptor (Homo sapiens, UniProt P47871).
T1 construct: expressed in transfected cells
The data set is described as follows: Assay (I) Glucagon activity: cAMP biosensor (ACTOne) FLIPR assay in HEK-293 cells with cloned glucagon receptor. Format: cell-based. The method, then:
The cells (14000 per well) were incubated (37° C., 5% CO2) overnight in 384-well plates. Next day the cells were loaded with a calcium responsive dye that only distributed into the cytoplasm. Probenecid, an inhibitor of the organic anion transporter, was added to prevent the dye from leaving the cell. A PDE inhibitor was added to prevent formatted cAMP from being degraded. […] End point data were collected after 6 minutes. An increase in intracellular cAMP was proportional to an increased in calcium concentrations in the cytoplasm. When calcium was bound the dry a fluorescence signal was generated. EC50-values were calculated in Prism5.

Data set [2] is described as follows: Assay (II) ThT fibrillation assay for physical stability. Particulars: ThT fibrillation assay, pH 4.0, 250 μM, 10 mM glycylglycine, 45 hours at 37° C., shaking 960 rpm. The class given is physicochemical. The source says: This has traditionally been measured by visual inspection of the sample. However, that kind of measurement is very subjective and depending on the observer. Therefore, the application of a small molecule indicator probe is much more advantageous.
Here, F is the ThT fluorescence at the time t. The constant t0 is the time needed to reach 50% of maximum fluorescence.
Few of those intermediates nucleate to form a template onto which further intermediates may assembly and the fibrillation proceeds. The lag-time corresponds to the interval in which the critical mass of nucleus is built up and the apparent rate constant is the rate with which the fibril itself is formed.
Samples were prepared freshly before each assay. […] The pH of the sample was adjusted to the desired value using appropriate amounts of concentrated NaOH and HCl. Thioflavin T was added to the samples from a stock solution in H2O to a final concentration of 1 μM.
The plate was sealed with Scotch Pad (Qiagen).
Each run was initiated by incubating the plate at the assay temperature for 10 min. The plate was measured every 20 minutes for a desired period of time. Between each measurement, the plate was shaken and heated as described.
The supernatant was filtered through a 0.22 μm filter and an aliquot was transferred to a HPLC vial.
The measurement points were saved in Microsoft Excel format for further processing and curve drawing and fitting was performed using GraphPad Prism.
The data set may be fitted to Eq. (1).

What is called EC50 is the concentration that produces a half-maximal response. Higher therefore signals weaker potency.

T1 sequence (P47871 26-477): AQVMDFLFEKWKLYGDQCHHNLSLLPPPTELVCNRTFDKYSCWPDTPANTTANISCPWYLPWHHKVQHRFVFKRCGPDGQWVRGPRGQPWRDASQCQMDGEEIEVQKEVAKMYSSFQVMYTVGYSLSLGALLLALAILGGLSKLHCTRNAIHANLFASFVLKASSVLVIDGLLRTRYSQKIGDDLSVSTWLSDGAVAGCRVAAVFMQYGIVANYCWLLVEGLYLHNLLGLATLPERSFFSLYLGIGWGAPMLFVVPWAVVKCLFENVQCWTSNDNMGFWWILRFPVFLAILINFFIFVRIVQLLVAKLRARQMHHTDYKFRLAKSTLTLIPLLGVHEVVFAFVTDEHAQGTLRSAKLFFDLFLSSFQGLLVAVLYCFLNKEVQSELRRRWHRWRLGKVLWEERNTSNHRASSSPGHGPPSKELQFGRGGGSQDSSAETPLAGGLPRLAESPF

Consider `CC(C)C[C@H](NC(=O)[C@H](Cc1ccc(O)cc1)NC(=O)[C@H](CCCCN)NC(=O)[C@H](CO)NC(=O)[C@H](Cc1ccc(O)cc1)NC(=O)[C@H](CC(=O)O)NC(=O)[C@H](CO)NC(=O)[C@@H](NC(=O)[C@H](Cc1ccccc1)NC(=O)[C@@H](NC(=O)CNC(=O)[C@H](CCC(N)=O)NC(=O)[C@H](CO)NC(=O)[C@@H](N)Cc1c[nH]cn1)[C@@H](C)O)[C@@H](C)O)C(=O)N[C@@H](CC(=O)O)C(=O)N[C@@H](CO)C(=O)N[C@@H](CCCNC(=N)N)C(=O)N[C@@H](CCCNC(=N)N)C(=O)N[C@@H](C)C(=O)N[C@@H](CCC(N)=O)C(=O)N[C@@H](CC(=O)O)C(=O)N[C@@H](Cc1ccccc1)C(=O)N[C@H](C(=O)N[C@@H](CCC(N)=O)C(=O)N[C@@H](CCCCN)C(=O)N[C@@H](CC(C)C)C(=O)N[C@@H](CC(C)C)C(=O)N[C@@H](CC(N)=O)C(=O)N[C@H](C(=O)O)[C@@H](C)O)C(C)C` [Example 8, [Lys^25, Leu^27]-Glucagon], for which, in data set [1], the concentration giving a half-maximal response (EC50) came out at 100 pM. In addition, in data set [2], the Assay (II) (pH 4.0) Lag time (hours) was > 45 hours.
